{"source": "paper PMC5118987", "about": "(Antimicrobial Agents and Chemotherapy, 2016)", "key": {"HIV-1 IIIb [1]": {"test_system": "HIV-1 IIIb", "assay": "Antiviral assay in MT-4 cells", "assay_type": "cell-based", "conditions": "Human immunodeficiency virus 1, MT4, 120 h, 5 days", "method": "(§1) For the antiviral assay utilizing MT-2 and MT-4 cells, 50 μl of a 2× test concentration of 5-fold serially diluted compound in culture medium with 10% FBS was added to each well of a 96-well plate (9 concentrations) in triplicate. MT-2 and MT-4 cells were infected with HIV-1 IIIb at a multiplicity of infection (MOI) of 0.01 for 3 h. Fifty microliters of infected cell suspension in culture medium with 10% FBS (∼1.5 × 10^4 cells) then was added to each well containing 50 μl of diluted compound. The plates were then incubated at 37°C for 5 days. After 5 days of incubation, 100 μl of CellTiter-Glo reagent (Promega Biosciences, Inc., Madison, WI) was added to each well containing MT-2 or MT-4 cells. Cell lysis was carried out by incubation at room temperature for 10 min and chemiluminescence was read. For compound cytotoxicity assessment, the protocol was identical except that uninfected cells were used and compounds were serially diluted 3-fold."}, "RSV strain A2": {"test_system": "RSV strain A2", "assay": "microbe, parasite or virus in culture", "assay_type": "cell-based, respiratory syncytial virus", "conditions": "human respiratory syncytial virus, HEp-2"}, "HIV-1 clonal variants": {"test_system": "HIV-1 clonal variants", "assay": "PhenoSense integrase assay, clonal variants from EVG/COBI/FTC/TDF virologic failures", "assay_type": "cell-based", "conditions": "Human immunodeficiency virus 1, NL43, read-out: mean EC50 of wild-type virus", "description": "Clonal Analysis of HIV-1 from Patients. Plasma from 16 patients treated in Studies GS-US-236-0102 and GS-US-236-0103 with confirmed virologic failure and resistance development in the HIV-1 integrase gene were sent to Monogram Biosciences (South San Francisco, CA) for clonal analysis. The HIV-1 RNA was isolated and the cDNA was synthesized using Monogram proprietary primers. Using proprietary primers, PCR amplification of the entire protease, reverse transcriptase, and integrase coding regions of the pol gene were performed. PCR products were inserted into T/A cloning vectors.\nApproximately 20 clones were chosen per patient sample for sequencing using proprietary primers. A subset of clones was chosen for phenotypic analysis based on the presence of INSTI resistance mutations. Resistance test vectors containing the patient-derived integrase coding region from selected clones were constructed using standard Monogram Biosciences protocols. […]\nvalues) in these clones were obtained through a contract study by Monogram Biosciences using the PhenoSense integrase assay. The fold-change from the NL4-3 wild-type reference vector values was determined."}, "HIV-1 IIIb [2]": {"test_system": "HIV-1 IIIb", "assay": "microbe, parasite or virus in culture", "conditions": "Human immunodeficiency virus 1, IIIB, MT4", "experimental": "Each compound series was prepared several times independently in quadruplicate to capture the variations in Hill slope associated with preparation of compound serial dilutions. The assay was performed in a 384-well format. MT-4 cells were infected in bulk at the same MOI as that described above, and the plates were developed with CellTiter-Glo reagent 5 days postinfection."}, "HCV 2a Replicon": {"test_system": "HCV 2a Replicon", "assay": "Anti-HCV activity, HCV 2a replicon", "conditions": "Hepatitis C virus, Huh-7"}, "[3]": {"assay": "Cytotoxicity in AD38 cells", "conditions": "human"}, "in vitro": {"assay": "in vitro", "conditions": "human, 6 days", "text": "Freshly isolated human peripheral blood mononuclear cells (PBMCs) were obtained from healthy volunteers (supplied by AllCells, Inc., Alameda, CA). Blood donors were negative for HIV-1, hepatitis B, and hepatitis C viral infections. CD4^+ T lymphocytes were isolated by negative selection using a magnetically labeled antibody cocktail ([sequence] Technologies Inc., Vancouver, Canada) and cultured in RPMI cell culture media (Life Technologies, Grand Island, NY) supplemented with 10% FBS. CD4^+ T cells were activated for 48 h at 37°C by addition of 1 μg/ml phytohemagglutinin (PHA; Sigma, St. Louis, MO) and 5 ng/ml interleukin-2 (IL-2; Roche Diagnostics, Indianapolis, IN). […] Human PBMCs were used for cytotoxicity assays after culturing for 48 h in either complete RPMI medium alone (resting conditions) or RPMI containing 1 μg/ml PHA and 5 ng/ml IL-2 (activated conditions)."}, "[4]": {"test_system": "inhibitor-selected HIV-1 IIIb passages", "assay": "Phenotypic profile of selected HIV-1 passages", "assay_type": "cell-based", "conditions": "Human immunodeficiency virus 1, IIIB"}, "[5]": {"assay": "Cytotoxicity assay in MT-4 cells", "assay_type": "cell-based", "conditions": "human, uninfected MT-4 cells", "method": "as §1"}, "Influenza A/PC/1/73": {"test_system": "Influenza A/PC/1/73", "assay": "microbe, parasite or virus in culture", "assay_type": "cell-based", "conditions": "NHBE"}, "HIV-1 IIIb [6]": {"test_system": "HIV-1 IIIb", "assay": "Antiviral assay in MT-2 cells", "assay_type": "cell-based", "method": "as §1"}, "HCV 1b Replicon": {"test_system": "HCV 1b Replicon", "assay": "Anti-HCV activity, HCV 1b replicon", "conditions": "Hepatitis C virus, Huh-7"}, "HIV-1 BaL": {"test_system": "HIV-1 BaL", "conditions": "primary CD4+ T-cells, 35 days, drug at tissue culture equivalent clinical Cmin (FTC 160 × EC50)"}, "HIV-2 CDC 310319": {"test_system": "HIV-2 CDC 310319", "assay": "Antiviral assay against HIV-2 isolate in fresh human PBMCs (RT endpoint)", "conditions": "Human immunodeficiency virus 2, PBMC"}, "HBV Production": {"test_system": "HBV Production", "assay": "microbe, parasite or virus in culture", "conditions": "Hepatitis B virus"}, "[7]": {"test_system": "INSTI-resistant HIV-1 mutants (HXB2)", "assay": "microbe, parasite or virus in culture", "assay_type": "cell-based"}, "[8]": {"test_system": "HRV (mixture of HRV1A, HRV14, HRV16)", "assay": "microbe, parasite or virus in culture", "assay_type": "cell-based", "conditions": "Human rhinovirus sp., H1-HeLa"}}, "note": "Like-named read-outs stand apart in the source and are kept apart here.", "data": [{"smiles": "O=C(NCc1c(F)cc(F)cc1F)c1cn2c(c(O)c1=O)C(=O)N1[C@H]3CC[C@H](C3)O[C@@H]1C2", "note": "[BIC, Bictegravir]", "values": [{"measurement": "EC50", "setting": "HIV-1 IIIb [1]", "result": "2.4 ± 0.4", "unit": "nM"}, {"measurement": "EC50", "setting": "RSV strain A2", "result": "> 50000", "unit": "nM"}, {"measurement": "EC50", "setting": "HIV-1 clonal variants", "result": 1.55, "unit": "nM"}, {"measurement": "EC50", "setting": "HIV-1 IIIb [2]", "result": "1.9 ± 0.6", "unit": "nM"}, {"measurement": "EC50", "setting": "HCV 2a Replicon", "result": "> 44000", "unit": "nM"}, {"measurement": "CC50 at 5 days", "setting": "[3]", "result": "> 50000", "unit": "nM"}, {"measurement": "CC50", "setting": "in vitro; CC50, Activated PBMCs (IL-2/PHA 2 days)", "result": 5700, "unit": "nM"}, {"measurement": "CC50", "setting": "in vitro; CC50, Resting PBMCs", "result": 8400, "unit": "nM"}, {"measurement": "EC50", "setting": "[4]; 480 h, selected virus EVG P2 (day 20, 7.2 nM)", "result": 5.8, "unit": "nM"}, {"measurement": "EC50", "setting": "[4]; HIV-1-IIIb (unselected)", "result": 2.2, "unit": "nM"}, {"measurement": "EC50", "setting": "[4]; selected virus BIC P3 (day 47, 6 nM)", "result": 3.8, "unit": "nM"}, {"measurement": "EC50", "setting": "[4]; selected virus BIC P5 (day 71, 12 nM)", "result": 5.8, "unit": "nM"}, {"measurement": "EC50", "setting": "[4]; selected virus BIC P6 (day 86, 24 nM)", "result": 7.8, "unit": "nM"}, {"measurement": "EC50", "setting": "[4]; selected virus BIC P8 (day 156, 96 nM)", "result": 11.2, "unit": "nM"}, {"measurement": "EC50", "setting": "[4]; selected virus BIC P9 (day 181, 192 nM)", "result": 17.5, "unit": "nM"}, {"measurement": "EC50", "setting": "[4]; selected virus BIC P10 (day 234, 384 nM)", "result": 13.5, "unit": "nM"}, {"measurement": "EC50", "setting": "[4]; selected virus DTG P3Lo (day 59, 6.4 nM)", "result": 2.9, "unit": "nM"}, {"measurement": "EC50", "setting": "[4]; selected virus DTG P4 (day 87, 9.6 nM)", "result": 7.8, "unit": "nM"}, {"measurement": "EC50", "setting": "[4]; selected virus DTG P5 (day 97, 14.4 nM)", "result": 10.6, "unit": "nM"}, {"measurement": "EC50", "setting": "[4]; selected virus DTG P7 (day 139, 32.4 nM)", "result": 21.8, "unit": "nM"}, {"measurement": "EC50", "setting": "[4]; selected virus DTG P9 (day 174, 72.9 nM)", "result": 23.8, "unit": "nM"}, {"measurement": "EC50", "setting": "[4]; selected virus DTG P10 (day 202, 109.4 nM)", "result": 30, "unit": "nM"}, {"measurement": "EC50", "setting": "[4]; selected virus EVG P4 (day 41, 28.8 nM)", "result": 6.5, "unit": "nM"}, {"measurement": "EC50", "setting": "[4]; selected virus EVG P6 (day 56, 115 nM)", "result": 6.8, "unit": "nM"}, {"measurement": "EC50", "setting": "[4]; selected virus EVG P7 (day 67, 230 nM)", "result": 8.9, "unit": "nM"}, {"measurement": "EC50", "setting": "[4]; selected virus EVG P9 (day 94, 922 nM)", "result": 6.8, "unit": "nM"}, {"measurement": "EC50", "setting": "[4]; selected virus EVG P10 (day 119, 1843 nM)", "result": 2.9, "unit": "nM"}, {"measurement": "CC50 at 5 days", "setting": "[5]", "result": 3660, "unit": "nM"}, {"measurement": "EC50", "setting": "Influenza A/PC/1/73", "result": 53500, "unit": "nM"}, {"measurement": "EC50", "setting": "HIV-1 IIIb [6]; Human immunodeficiency virus 1, IIIB, MT2, T-cell lines and primary human T lymphocytes, read-out: 50% effective concentrations", "result": "1.5 to 2.4", "unit": "nM"}, {"measurement": "EC50", "setting": "HIV-1 IIIb [6]; Human immunodeficiency virus 1, MT2, 120 h, MT-2 cells, HIV-1 IIIb, 5 days, read-out: EC50", "result": "1.5 ± 0.2", "unit": "nM"}, {"measurement": "EC50", "setting": "HCV 1b Replicon", "result": "> 44000", "unit": "nM"}, {"measurement": "Frequency of Viral Breakthrough with RAMs", "setting": "HIV-1 BaL", "result": 0, "unit": "%"}, {"measurement": "p24+ Wells", "setting": "HIV-1 BaL", "result": "0/24"}, {"measurement": "EC50", "setting": "HIV-2 CDC 310319", "result": "1.7 ± 1", "unit": "nM"}, {"measurement": "EC50", "setting": "HBV Production", "result": "> 50000", "unit": "nM"}, {"measurement": "EC50", "setting": "[7]; Human immunodeficiency virus 1, HXB2, IN mutant E92Q", "result": "2 ± 0.8", "unit": "nM"}, {"measurement": "EC50", "setting": "[7]; Human immunodeficiency virus 1, HXB2, IN mutant E92Q/N155H", "result": "2 ± 0.2", "unit": "nM"}, {"measurement": "EC50", "setting": "[7]; Human immunodeficiency virus 1, HXB2, IN mutant E138K/Q148K", "result": "13.7 ± 1.2", "unit": "nM"}, {"measurement": "EC50", "setting": "[7]; Human immunodeficiency virus 1, HXB2, IN mutant G140S/Q148R", "result": "3.1 ± 0.8", "unit": "nM"}, {"measurement": "EC50", "setting": "[7]; Human immunodeficiency virus 1, HXB2, IN mutant M50I (BIC/DTG selection)", "result": "1.9 ± 0.3", "unit": "nM"}, {"measurement": "EC50", "setting": "[7]; Human immunodeficiency virus 1, HXB2, IN mutant M50I/R263K (BIC selection)", "result": "4.2 ± 0.9", "unit": "nM"}, {"measurement": "EC50", "setting": "[7]; Human immunodeficiency virus 1, HXB2, IN mutant M50I/S119R/R263K (DTG selection)", "result": "6.4 ± 1.6", "unit": "nM"}, {"measurement": "EC50", "setting": "[7]; Human immunodeficiency virus 1, HXB2, IN mutant N155H", "result": "1.6 ± 0.4", "unit": "nM"}, {"measurement": "EC50", "setting": "[7]; Human immunodeficiency virus 1, HXB2, IN mutant N155H/Q148R", "result": "7.1 ± 4.3", "unit": "nM"}, {"measurement": "EC50", "setting": "[7]; Human immunodeficiency virus 1, HXB2, IN mutant Q148R", "result": "1 ± 0.3", "unit": "nM"}, {"measurement": "EC50", "setting": "[7]; Human immunodeficiency virus 1, HXB2, IN mutant R263K (BIC/DTG selection), Table 7", "result": "3.2 ± 0.7", "unit": "nM"}, {"measurement": "EC50", "setting": "[7]; Human immunodeficiency virus 1, HXB2, IN mutant R263K, Table 6", "result": "2.9 ± 0.7", "unit": "nM"}, {"measurement": "EC50", "setting": "[7]; Human immunodeficiency virus 1, HXB2, IN mutant S119R (DTG selection)", "result": "2.7 ± 0.7", "unit": "nM"}, {"measurement": "EC50", "setting": "[7]; Human immunodeficiency virus 1, HXB2, IN mutant S119R/R263K (DTG selection)", "result": "4.2 ± 1.3", "unit": "nM"}, {"measurement": "EC50", "setting": "[7]; Human immunodeficiency virus 1, HXB2, IN mutant S153Y (DTG selection)", "result": "3.9 ± 0.7", "unit": "nM"}, {"measurement": "EC50", "setting": "[7]; Human immunodeficiency virus 1, HXB2, IN mutant S153Y/R263K (DTG selection)", "result": "8.3 ± 1.4", "unit": "nM"}, {"measurement": "EC50", "setting": "[7]; Human immunodeficiency virus 1, HXB2, IN mutant Y143R", "result": "1.8 ± 0.5", "unit": "nM"}, {"measurement": "EC50", "setting": "[7]; Human immunodeficiency virus 1, HXB2, WT (HXB2), Table 6, read-out: EC50", "result": "1.6 ± 0.4", "unit": "nM"}, {"measurement": "EC50", "setting": "[7]; Human immunodeficiency virus 1, HXB2, WT (HXB2), Table 7, read-out: EC50", "result": "1.5 ± 0.3", "unit": "nM"}, {"measurement": "cross-resistance to single-mutant HIV-1 variants", "setting": "[7]; {}", "result": "1-2 fold"}, {"measurement": "EC50", "setting": "[8]", "result": "> 50000", "unit": "nM"}]}]}
